In patent publication EP0185130A1, “5-Alkoxy-2,4,6-triodo or tribromo-isophthalic-acid derivatives, process for their preparation and X-ray contrast agents containing them” (BRACCO INDUSTRIA CHIMICA Società per Azioni, priority 1984, dated 1986):
In brackets after ≈: the same amount, converted by molar mass. Like-named read-outs stand apart in the source and are kept apart here.

Test: Water solubility
Type: physicochemical
Settings: for solubility: water, read-out: Wasserlöslichkeit
[1] = result in words, no temperature stated

Row | solubility (bei 25 °C) [mg/mL] | solubility (bei 20 °C) [mg/mL] | Compound | also measured
1 | > 1000 | – | CC(Oc1c(I)c(C(=O)NC(CO)CO)c(I)c(C(=O)NC(CO)CO)c1I)C(=O)N(C)C[C@H](O)[C@@H](O)[C@H](O)[C@H](O)CO (some centres unmarked) [Beispiel 28 R,S] | –
2 | > 1000 | – | C[C@@H](Oc1c(I)c(C(=O)NC(CO)CO)c(I)c(C(=O)NC(CO)CO)c1I)C(=O)N(C)C[C@H](O)[C@@H](O)[C@H](O)[C@H](O)CO [Beispiel 28 R] | –
3 | – | > 1000 | CN(C[C@H](O)[C@@H](O)[C@H](O)[C@H](O)CO)C(=O)COc1c(Br)c(C(=O)NC(CO)CO)c(Br)c(C(=O)NC(CO)CO)c1Br [Beispiel 29, 5(N-Methyl-N-2,3,4,5,6-pentahydroxyhexyl)aminocarbonylmethoxy-2,4,6-tribromisophthalsäure-bis(1,3-dihydroxyisopropylamid)] | –
4 | 12 (≈ 14.9 mM) | – | O=C(COc1c(I)c(C(=O)NCC(O)CO)c(I)c(C(=O)NCC(O)CO)c1I)NCCO (centres unmarked) [Beispiel 31, 5-(2-Hydroxyethylaminocarbonylmethoxy)-2,4,6-trijodisophthalsäure-bis(2,3-dihydroxypropylamid)] | solubility (bei Siedetemperatur): 130 mg/mL (≈ 161 mM)
5 | – | 10 (≈ 11.9 mM) | O=C(COc1c(I)c(C(=O)NCC(O)CO)c(I)c(C(=O)NCC(O)CO)c1I)NCC(O)CO (centres unmarked) [Beispiel 32, 5-(2,3-Dihydroxypropylaminocarbonylmethoxy)-2,4,6-trijodisophthalsäure-bis(2,3-dihydroxypropylamid)] | solubility (bei Siedetemperatur): 100 mg/mL (≈ 119 mM)
6 | > 1000 | – | CC(CO)(CO)NC(=O)COc1c(I)c(C(=O)NCC(O)CO)c(I)c(C(=O)NCC(O)CO)c1I (centres unmarked) [Beispiel 33, 5-(1,3-Dihydroxy-2-methylisopropylaminocarbonylmethoxy)-2,4,6-trijod-isophthalsäure-bis(2,3-dihydroxypropylamid)] | –
7 | > 1000 | – | CN(CC(O)CO)C(=O)COc1c(I)c(C(=O)NCC(O)CO)c(I)c(C(=O)NCC(O)CO)c1I (centres unmarked) [Beispiel 34, 5-(N-Methyl-N-2,3-dihydroxypropyl)aminocarbonylmethoxy-2,4,6-trijod-isophthalsäure-bis(2,3-dihydroxypropylamid)] | –
8 | > 1000 | – | CN(C[C@H](O)[C@H](O)CO)C(=O)COc1c(I)c(C(=O)NCC(O)CO)c(I)c(C(=O)NCC(O)CO)c1I (some centres unmarked) [Beispiel 35, 5-(N-Methyl-N-2,3,4-trihydroxybutyl)aminocarbonylmethoxy-2,4,6-trijod-isophthalsäure-bis(2,3-dihydroxypropylamid)] | –
9 | > 1000 | – | CN(C[C@H](O)[C@@H](O)[C@@H](O)CO)C(=O)COc1c(I)c(C(=O)NCC(O)CO)c(I)c(C(=O)NCC(O)CO)c1I (some centres unmarked) [Beispiel 36, 5-(N-Methyl-N-2,3,4,5-tetrahydroxypentyl)aminocarbonylmethoxy-2,4,6-trijodisophthalsäure-bis(2,3-dihydroxypropylamid)] | –
10 | – | > 1000 | CN(C[C@H](O)[C@@H](O)[C@H](O)[C@H](O)CO)C(=O)COc1c(I)c(C(=O)NCC(O)CO)c(I)c(C(=O)NCC(O)CO)c1I (some centres unmarked) [Beispiel 37, 5-(N-Methyl-N-2,3,4,5,6-pentahydroxyhexyl)aminocarbonylmethoxy-2,4,6-trijodisophthalsäure-bis(2,3-dihydroxypropylamid)] | –

Further lines, the compound ahead of its results:

Row | Compound | solubility (bei 25 °C) [mg/mL] | solubility (bei 20 °C) [mg/mL] | also measured
11 | CC(Oc1c(I)c(C(=O)NC(CO)CO)c(I)c(C(=O)NC(CO)CO)c1I)C(=O)N(CCO)CCO (racemic) [Beispiel 18] | > 1000 | – | –
12 | CCOCCOCCOc1c(I)c(C(=O)NC(CO)CO)c(I)c(C(=O)NC(CO)CO)c1I [Beispiel 1, 5-(3,6-Dioxaoctyl)oxy-2,4,6-trijodisophthalsäure-bis(1,3-dihydroxyiso-propylamid)] | – | 60 (≈ 73 mM) | solubility (bei Siedetemperatur): 1000 mg/mL (≈ 1220 mM)
13 | O=C(NC(CO)CO)c1c(I)c(OCCCOCCOCCOCCOCCCO)c(I)c(C(=O)NC(CO)CO)c1I [Beispiel 6, 5-(16-Hydroxy-4,7,10,13-tetraoxahexadecyl)oxy-2,4,6-trijod-isophthalsäure-bis(1,3-dihydroxyisopropylamid)] | – | > 1000 | –
14 | O=C(NC(CO)CO)c1c(I)c(OCC(O)CO)c(I)c(C(=O)NC(CO)CO)c1I (centres unmarked) [Beispiel 8, 5-(2,3-Dihydroxypropyl)oxy-2,4,6-trijodisophthalsäure-bis(1,3-dihydroxy-isopropylamid)] | – | – | Wasserlöslichkeit [1]: löslich in Wasser
15 | O=C(NC(CO)CO)c1c(I)c(OC(CO)CO)c(I)c(C(=O)NC(CO)CO)c1I [Beispiel 9, 5-(1,3-Dihydroxyisopropyl)oxy-2,4,6-trijodisophthalsäure-bis(1,3-di-hydroxyisopropylamid)] | – | – | Wasserlöslichkeit [1]: in Wasser leicht löslich
16 | O=C(NC(CO)CO)c1c(I)c(OCC(CO)(CO)CO)c(I)c(C(=O)NC(CO)CO)c1I [Beispiel 10, 5-(2,2-Bis-(hydroxymethyl)-3-hydroxypropyl)oxy-2,4,6-trijodisophthal-säure-bis(1,3-dihydroxyisopropylamid)] | – | – | Wasserlöslichkeit [1]: spielend leicht wasserlöslich
17 | CNC(=O)COc1c(I)c(C(=O)NC(CO)CO)c(I)c(C(=O)NC(CO)CO)c1I [Beispiel 11, 5-Methylaminocarbonylmethoxy-2,4,6-trijod-isophthalsäure-bis(1,3-di-hydroxyisopropylamid)] | – | – | solubility (bei Siedetemperatur): 100 mg/mL (≈ 129 mM)
18 | O=C(COc1c(Br)c(C(=O)NC(CO)CO)c(Br)c(C(=O)NC(CO)CO)c1Br)NC(CO)CO [Beispiel 12, 5-(1,3-Dihydroxyisopropylaminocarbonyl)methoxy-2,4,6-tribromisophthal-säure-bis(1,3-dihydroxyisopropylamid)] | – | > 1000 | –
19 | C[C@@H](Oc1c(I)c(C(=O)NC(CO)CO)c(I)c(C(=O)NC(CO)CO)c1I)C(=O)NC(CO)CO [Beispiel 14, R(-)-5-(1(1,3-Dihydroxyisopropylaminocarbonyl)ethoxy)-2,4,6-trijodiso-phthalsäure-bis(1,3-dihydroxyisopropylamid)] | – | – | Wasserlöslichkeit [1]: gering
20 | CC(CO)(CO)NC(=O)COc1c(I)c(C(=O)NC(CO)CO)c(I)c(C(=O)NC(CO)CO)c1I [Beispiel 15, 5-(1,3-Dihydroxy-2-methylisopropylaminocarbonyl)methoxy-2,4,6-trijodiso-phthalsäure-bis(1,3-dihydroxyisopropylamid)] | – | 16 (≈ 18.8 mM) | solubility (bei Siedetemperatur): 1000 mg/mL (≈ 1170 mM)
21 | C[C@@H](Oc1c(I)c(C(=O)NC(CO)CO)c(I)c(C(=O)NC(CO)CO)c1I)C(=O)NC(CO)(CO)CO [Beispiel 16, R(-)-5(1(1,3-Dihydroxy-2-hydroxymethyl-isopropylaminocarbonyl)ethoxy)-2,4,6-trijodisophthalsäure-bis(1,3-dihydroxyisopropylamid)] | 25 (≈ 28.4 mM) | – | solubility (bei 100 °C): 1000 mg/mL (≈ 1130 mM)
22 | O=C(NC(CO)CO)c1c(I)c(OCC(=O)N(CCO)CCO)c(I)c(C(=O)NC(CO)CO)c1I [Beispiel 17] | > 1000 | – | –
23 | CN(CC(O)CO)C(=O)COc1c(I)c(C(=O)NC(CO)CO)c(I)c(C(=O)NC(CO)CO)c1I (centres unmarked) [Beispiel 19, 5-(N-Methyl-N-2,3-dihydroxypropyl)aminocarbonylmethoxy-2,4,6-trijodiso-phthalsäure-bis-(1,3-dihydroxyisopropylamid)] | – | > 1000 | –
24 | CC(Oc1c(I)c(C(=O)NC(CO)CO)c(I)c(C(=O)NC(CO)CO)c1I)C(=O)N(C)CC(O)CO (centres unmarked) [Beispiel 20 R,S] | – | > 1000 | –
25 | C[C@@H](Oc1c(I)c(C(=O)NC(CO)CO)c(I)c(C(=O)NC(CO)CO)c1I)C(=O)N(C)CC(O)CO (some centres unmarked) [Beispiel 20 R] | – | > 1000 | –
26 | CN(C[C@H](O)[C@H](O)CO)C(=O)COc1c(I)c(C(=O)NC(CO)CO)c(I)c(C(=O)NC(CO)CO)c1I [Beispiel 21, 5-(N-Methyl-N-2,3,4-trihydroxybutyl)aminocarbonylmethoxy-2,4,6-trijod-isophthalsäure-bis(1,3-dihydroxyisopropylamid)] | – | > 1000 | –
27 | CC(Oc1c(I)c(C(=O)NC(CO)CO)c(I)c(C(=O)NC(CO)CO)c1I)C(=O)N(C)CC(O)C(O)CO (centres unmarked) [Beispiel 22, (5-(1(N-Methyl-N-2,3,4-trihydroxybutyl)aminocarbonyl)ethoxy)-2,4,6-trijodisophthalsäure-bis(1,3-dihydroxyisopropylamid)] | – | – | Wasserlöslichkeit (bei 25 °C): > 100 % (g/v)
28 | O=C(NC(CO)CO)c1c(I)c(OCC(=O)N(CCO)CC(O)CO)c(I)c(C(=O)NC(CO)CO)c1I (centres unmarked) [Beispiel 23, 5-(N-2-Hydroxyethyl-N-2,3-dihydroxypropyl)aminocarbonylmethoxy-2,4,6-trijodisophthalsäure-bis(1,3-dihydroxyisopropylamid)] | – | – | solubility (no temperature stated): > 1000 mg/mL
29 | C[C@@H](Oc1c(I)c(C(=O)NC(CO)CO)c(I)c(C(=O)NC(CO)CO)c1I)C(=O)N(CCO)CC(O)CO (some centres unmarked) [Beispiel 24, R-5(1((N-2-Hydroxyethyl-N-2,3-dihydroxypropyl)aminocarbonyl)ethoxy)-2,4,6-trijodisophthalsäure-bis(1,3-dihydroxyisopropylamid)] | – | – | solubility (no temperature stated): > 1000 mg/mL
30 | CN(C[C@@H](O)[C@H](O)[C@H](O)CO)C(=O)COc1c(I)c(C(=O)NC(CO)CO)c(I)c(C(=O)NC(CO)CO)c1I [Beispiel 25, 5-(N-Methyl-N-2,3,4,5-tetrahydroxypentyl)aminocarbonylmethoxy-2,4,6-trijodisophthalsäure-bis(1,3-dihydroxyisopropylamid)] | – | – | solubility (no temperature stated): > 1000 mg/mL
31 | C[C@@H](Oc1c(I)c(C(=O)NC(CO)CO)c(I)c(C(=O)NC(CO)CO)c1I)C(=O)N(C)C[C@H](O)[C@@H](O)[C@@H](O)CO [Beispiel 26, R-5(1((N-Methyl-N-2,3,4,5-tetrahydroxypentyl)aminocarbonyl)ethoxy)-2,4,6-trijodisophthalsäure-bis(1,3-dihydroxyisopropylamid)] | > 1000 | – | –
32 | CN(C[C@H](O)[C@@H](O)[C@H](O)[C@H](O)CO)C(=O)COc1c(I)c(C(=O)NC(CO)CO)c(I)c(C(=O)NC(CO)CO)c1I [Beispiel 27, 5-(N-Methyl-N-2,3,4,5,6-pentahydroxyhexyl)aminocarbonylmethoxy-2,4,6-trijodisophthalsäure-bis(1,3-dihydroxyisopropylamid)] | – | 1000 (≈ 1060 mM) | –
33 | CNC(=O)COc1c(I)c(C(=O)NCC(O)CO)c(I)c(C(=O)NCC(O)CO)c1I (centres unmarked) [Beispiel 30, 5-Methylaminocarbonylmethoxy-2,4,6-trijodisophthalsäure-bis(2,3-di-hydroxypropylamid)] | – | – | solubility (bei Siedetemperatur): 20 mg/mL (≈ 25.7 mM)
